Experimental data as given in patent US8765779B2, “Tricyclic derivatives and their pharmaceutical use and compositions” (Cephalon, Inc., priority 2009, dated 2014).
Counter-ions that a name gives are not always drawn.

The compounds below were run against T1, human 5-HT6 receptor (Homo sapiens, UniProt P50406) (assay: Human 5-HT6 Receptor Binding Assay ([3H]LSD displacement, scintillation beads)). Settings: membranes of CHO-K1 cells with recombinant human 5-HT6, 4 nM [3H]LSD; Table 1, class symbols; read-out: h5-HT6 (Ki).
T1 construct: host or cells: CHO-K1 cells, stably transfected; membranes prepared in house
T1 sequence (P50406 whole entry): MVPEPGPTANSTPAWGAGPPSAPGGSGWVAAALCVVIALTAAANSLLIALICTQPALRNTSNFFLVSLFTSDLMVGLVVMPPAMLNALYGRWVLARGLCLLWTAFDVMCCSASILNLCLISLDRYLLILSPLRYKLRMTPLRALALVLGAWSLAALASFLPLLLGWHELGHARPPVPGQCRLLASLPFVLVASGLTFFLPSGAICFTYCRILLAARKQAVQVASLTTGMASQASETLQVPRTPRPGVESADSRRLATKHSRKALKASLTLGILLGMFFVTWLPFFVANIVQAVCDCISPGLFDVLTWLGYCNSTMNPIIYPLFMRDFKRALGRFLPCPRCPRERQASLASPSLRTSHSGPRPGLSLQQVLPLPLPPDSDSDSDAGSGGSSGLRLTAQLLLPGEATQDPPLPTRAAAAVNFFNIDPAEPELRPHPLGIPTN

SMILES | Ki [nM]
COc1cccc(S(=O)(=O)Oc2ccc3c(c2)OC2CNCCC32)c1 (stereo not shown) [Example 651] | < 500
CC12CCNCC1Oc1ccc(OS(=O)(=O)CCc3ccccc3)cc12 (stereo not shown) [Example 785] | > 1000
O=S(=O)(Nc1ccccc1)c1ccc2c(c1)C1CCNCC1O2 (stereo not shown) [Example 848] | > 1000
O=S(=O)(c1ccc2oc3c(c2c1)CCNC3)c1cc(F)ccc1F [Example 273] | < 500
CC(C)c1ccc(S(=O)(=O)Oc2ccc3c(c2)OC2CNCCC32)cc1 (stereo not shown) [Example 657] | < 500
O=S(=O)(c1ccc2c(c1)OC1CNCCC21)c1c(F)c(F)cc(F)c1F (stereo not shown) [Example 150] | < 500
O=S(=O)(Nc1ccc2c(c1)C1CCNCC1O2)c1c(Cl)nc2sccn12 (stereo not shown) [Example 818] | < 500
CC(=O)N(C)CC1NCCc2c1oc1ccc(S(=O)(=O)c3cccc(F)c3)cc21 (stereo not shown) [Example 533, N-({6-[(3-Fluorophenyl)sulfonyl]-1,2,3,4-tetrahydro[1]benzofuro[2,3-c]pyridin-1-yl}methyl)-N-methylacetamide] | < 500
O=[N+]([O-])c1ccc(S(=O)(=O)c2ccc3c(c2)OC2CNCCC32)cc1 (stereo not shown) [Example 124] | > 1000
CC(C)Oc1cccc(S(=O)(=O)c2ccc3c(c2)OC2CNCCC32C)c1 (single isomer, unassigned) [Example 21, 4a-methyl-7-{[3-(propan-2-yloxy)phenyl]sulfonyl}-1,2,3,4,4a,9a-hexahydro[1]benzofuro[2,3-c]pyridine] | < 500
CC(C)Oc1cccc(S(=O)(=O)c2ccc3c(c2)OC2CNCCC32)c1F (stereo not shown) [Example 483] | < 500
CC1(C)NCCc2c1oc1cc(S(=O)(=O)c3cc(Cl)cnc3N)ccc21 [Example 372] | < 500
O=S(=O)(c1ccccc1)c1ccc2c3c(oc2c1)C1(CCCOC1)NCC3 (single isomer, unassigned) [Example 543, 7-(Phenylsulfonyl)-3,4,5′,6′-tetrahydro-2H,4′H-spiro[1-benzofuro[2,3-c]pyridine-1,3′-pyran]hydrochloride] | < 500
COc1ccc(S(=O)(=O)c2ccc3oc4c(c3c2)CCNC4)cc1 [Example 245] | < 500
O=S(=O)(Oc1ccc2c(c1)OC1CNCCC21)c1ccc(-c2ccon2)s1 (stereo not shown) [Example 680] | < 500
O=S(=O)(Oc1ccc2c(c1)OC1CNCCC21)c1cccc(Cl)c1 (stereo not shown) [Example 653] | < 500
COc1cccc(S(=O)(=O)c2ccc3c(c2)OC2CNCCC32C)c1 (racemic) [Example 4, 7-[(3-methoxyphenyl)sulfonyl]-4a-methyl-1,2,3,4,4a,9a-hexahydro[1]benzofuro[2,3-c]pyridine] | < 500
O=S(=O)(c1ccc2c(c1)OC1CNCCC21)c1cccnc1Cl (stereo not shown) [Example 390] | < 500
CCOc1cc(F)cc(S(=O)(=O)c2ccc3c(c2)OC2CNCCC32)c1 (stereo not shown) [Example 413] | < 500
O=S(=O)(c1cc(F)cc(OCC(F)(F)F)c1)c1ccc2c(c1)OC1CNCCC21 (stereo not shown) [Example 403] | < 500
O=S(=O)(c1ccc2c(c1)OC1CNCCC21)c1ccccc1OCC(F)(F)F (stereo not shown) [Example 408] | < 500
CC12CCNCC1Oc1ccc(OS(=O)(=O)Cc3ccc(F)cc3F)cc12 (stereo not shown) [Example 787] | > 1000
CC12CCNCC1Oc1cc(S(=O)(=O)c3cncc(Cl)c3)ccc12 (stereo not shown) [Example 430] | < 500

SMILES | Ki [nM]
O=S(=O)(c1cccc(OCC2CCOCC2)c1)c1ccc2c(c1)OC1CNCCC21 (single isomer, unassigned) [Example 548, 7-{[3-(Tetrahydro-2H-pyran-4-ylmethoxy)phenyl]sulfonyl}-1,2,3,4,4a,9a-hexahydro[1]benzofuro[2,3-c]pyridine] | < 500
O=S(=O)(Oc1ccc2c(c1)OC1CN(CCc3ccccc3)CCC21)c1ccc(Cl)cc1 (stereo not shown) [Example 813] | > 1000
COc1ccc(S(=O)(=O)Oc2ccc3c(c2)OC2CNCCC32)cc1 (stereo not shown) [Example 650] | < 500
COc1cc(OCC2CC2)cc(S(=O)(=O)c2ccc3c(c2)OC2CNCCC32)c1 (stereo not shown) [Example 585] | < 500
O=S(=O)(c1ccc2c(c1)OC1CNCCC21)c1cccc(OCC2CCOCC2)c1F (stereo not shown) [Example 482] | < 500
COc1ccccc1NS(=O)(=O)c1ccc2c(c1)C1CCNCC1O2 (stereo not shown) [Example 841] | > 1000
C#CCOc1cccc(S(=O)(=O)c2ccc3c(c2)OC2CNCCC32)c1 (stereo not shown) [Example 549] | < 500
CC(C)Oc1cccc(S(=O)(=O)c2ccc3c(c2)OC2CNCCC32C)c1 (single isomer, unassigned) [Example 20, 4a-methyl-7-{[3-(propan-2-yloxy)phenyl]sulfonyl}-1,2,3,4,4a,9a-hexahydro[1]benzofuro[2,3-c]pyridine] | < 500
O=S(=O)(Oc1ccc2c(c1)C1CCNCC1O2)c1ccc(Cl)c(Cl)c1 (stereo not shown) [Example 738] | < 500
O=S(=O)(Oc1ccc2c(c1)OC1CNCCC21)c1cccc2cccnc12 (stereo not shown) [Example 662] | < 500
Cc1ccc(S(=O)(=O)Oc2ccc3c(c2)OC2CNCCC32)cc1 (stereo not shown) [Example 642] | < 500
O=S(=O)(c1cccc(F)c1)c1ccc2oc3c(c2c1)CCNC3C1CCCC1 (stereo not shown) [Example 513] | < 500
O=S(=O)(NCCc1ccccc1)c1ccc2c(c1)C1CCNCC1O2 (stereo not shown) [Example 855] | > 1000
O=S(=O)(c1cccc(Cl)c1)c1ccc2c3c(oc2c1)CN(CCc1ccccc1)CC3 [Example 602] | < 500
O=S(=O)(c1cccc(F)c1)c1ccc2c3c(oc2c1)C(C1CCOCC1)NCC3 (stereo not shown) [Example 496] | < 500
O=S(=O)(Cc1cccc(Cl)c1)Oc1ccc2c(c1)C1CCNCC1O2 (stereo not shown) [Example 752] | > 1000
O=S(=O)(c1ccc2c(c1)OC1CNCCC21)c1ccc2ccccc2c1 (stereo not shown) [Example 122] | < 500
O=S(=O)(Oc1ccc2c(c1)C1CCNCC1O2)c1ccc(F)c(Cl)c1 (stereo not shown) [Example 723] | 500 to 1000
O=S(=O)(c1cccc(OCCCO)c1)c1ccc2c(c1)OC1CNCCC21 (stereo not shown) [Example 568] | < 500
[O-][S+](c1cccc(C(F)(F)F)c1)c1ccc2c3c(oc2c1)C1(CCOCC1)NCC3 (stereo not shown) [Example 297] | < 500
O=S(=O)(NC1CCCCC1)c1ccc2c(c1)C1CCNCC1O2 (stereo not shown) [Example 849, N-cyclohexy1-1,2,3,4,4a,9a-hexahydro[1]benzofuro[2,3-c]pyridine-6-sulfonamide] | > 1000
O=S(=O)(c1ccc(Cl)c(Cl)c1)c1ccc2c(c1)OC1CNCCC21 (stereo not shown) [Example 120] | < 500
O=S(=O)(Nc1ccc(Cl)c(Cl)c1)c1ccc2c(c1)C1CCNCC1O2 (stereo not shown) [Example 852] | > 1000

SMILES | Ki [nM]
CC1NCCc2c1oc1cc(S(=O)(=O)c3ccc(F)c(F)c3)ccc21 (stereo not shown) [Example 238] | < 500
O=S(=O)(c1cccc(Br)c1)c1ccc2c3c(oc2c1)CNCC3 [Example 212, 7-[(3-bromophenyl)sulfonyl]-1,2,3,4-tetrahydro[1]benzofuro[2,3-c]pyridine] | < 500
CN(C)c1cccc(S(=O)(=O)c2ccc3oc4c(c3c2)CCNC4)c1 [Example 355] | > 1000
O=S(=O)(c1cccc(Cl)c1)c1ccc2c3c(oc2c1)C(C1CCOCC1)NCC3 (stereo not shown) [Example 500] | < 500
O=S(=O)(c1ccc2oc3c(c2c1)CCNC3)c1cccc(Cl)c1Cl [Example 260, 6-[(2,3-dichlorophenyl)sulfonyl]-1,2,3,4-tetrahydro[1]benzofuro[2,3-c]pyridine] | < 500
O=S(=O)(c1ccccc1)c1ccc2c3c(oc2c1)CN(Cc1ccccc1)CC3 [Example 597] | 500 to 1000
CC(C)Oc1cccc(S(=O)(=O)c2ccc3c4c(oc3c2)C2(CCC2)NCC4)c1 [Example 26, 7-{[3-(propan-2-yloxy)phenyl]sulfonyl}-3,4-dihydro-2H-spiro[1-benzofuro[2,3-c]pyridine-1,1′-cyclobutane]] | < 500
O=S(=O)(Oc1ccc2c(c1)OC1CNCCC21)c1ccc(F)c(Cl)c1 (stereo not shown) [Example 663] | < 500
CC1(C)NCCC2c3ccc(S(=O)(=O)c4cccc(F)c4)cc3OC21 (stereo not shown) [Example 624, 7-[(3-Fluorophenyl)sulfonyl]-1,1-dimethyl-1,2,3,4,4a,9a-hexahydro[1]benzofuro[2,3-c]pyridine] | < 500
O=S(=O)(c1ccc(Cl)cc1)c1ccc2c3c(oc2c1)CNCC3 [Example 203] | < 500
CC12CCNCC1Oc1ccc(OS(=O)(=O)c3ccccc3C(F)(F)F)cc12 (stereo not shown) [Example 779] | > 1000
CC1(C)CNC2(CCOCC2)c2oc3cc([S+]([O-])c4cccc(F)c4)ccc3c21 (racemic) [Example 47, 7-[(3-fluorophenyl)sulfinyl]-4,4-dimethyl-2′,3,3′,4,5′,6′-hexahydro-2H-spiro[1-benzofuro[2,3-c]pyridine-1,4′-pyran]] | < 500
O=S(=O)(c1ccc2oc3c(c2c1)CCNC3)C1CCCCC1 [Example 280] | > 1000
CC1(C)NCCc2c1oc1cc(S(=O)(=O)c3cncc(Br)c3)ccc21 [Example 367] | < 500
CC1OCCC12NCCc1c2oc2cc(S(=O)(=O)c3cccc(F)c3)ccc12 (single isomer, unassigned) [Example 60, 7-[(3-Fluorophenyl)sulfonyl]-2′-methyl-3,4,4′,5′-tetrahydro-2H-spiro[1-benzofuro[2,3-c]pyridine-1,3′-furan]] | < 500
O=S(=O)(c1ccncc1)c1ccc2oc3c(c2c1)CCNC3 [Example 352] | > 1000
O=C(COc1cccc(S(=O)(=O)c2ccc3c(c2)OC2CNCCC32)c1)N1CCCC1 (stereo not shown) [Example 564] | > 1000
O=S(=O)(c1cccc(Cl)c1)c1ccc2c3c(oc2c1)C1(CCOC1)NCC3 (stereo not shown) [Example 303] | < 500
CC(=O)N1CCC2c3ccc(S(=O)(=O)c4ccccc4)cc3OC2C1 (stereo not shown) [Example 613, 1-[7-(Phenylsulfonyl)-3,4,4a,9a-tetrahydro[1]benzofuro[2,3-c]pyridin-2(1H)-yl]ethanone] | > 1000
O=S(=O)(c1cccc(OCC2CC2)c1)c1ccc2c(c1)OC1CNCCC21 (stereo not shown) [Example 555] | < 500
CC1(C)NCCc2c1oc1ccc(S(=O)(=O)c3cccc(F)c3)cc21 [Example 42, 6-[(3-fluorophenyl)sulfonyl]-1,1-dimethyl-1,2,3,4-tetrahydro[1]benzofuro[2,3-c]pyridine] | 500 to 1000
